Results taken from patent publication US8884023B2, “Pyrano [3,2-D][1,3]thiazole as glycosidase inhibitors” (priority 2011, dated 2014).
Like-named read-outs stand apart in the source and are kept apart here.

What was measured:
O-GlcNAcase = target: T1, O-GlcNAcase (UniProt Q8VIJ5); assay type: cell-based
T1 sequence (Q8VIJ5 1-916): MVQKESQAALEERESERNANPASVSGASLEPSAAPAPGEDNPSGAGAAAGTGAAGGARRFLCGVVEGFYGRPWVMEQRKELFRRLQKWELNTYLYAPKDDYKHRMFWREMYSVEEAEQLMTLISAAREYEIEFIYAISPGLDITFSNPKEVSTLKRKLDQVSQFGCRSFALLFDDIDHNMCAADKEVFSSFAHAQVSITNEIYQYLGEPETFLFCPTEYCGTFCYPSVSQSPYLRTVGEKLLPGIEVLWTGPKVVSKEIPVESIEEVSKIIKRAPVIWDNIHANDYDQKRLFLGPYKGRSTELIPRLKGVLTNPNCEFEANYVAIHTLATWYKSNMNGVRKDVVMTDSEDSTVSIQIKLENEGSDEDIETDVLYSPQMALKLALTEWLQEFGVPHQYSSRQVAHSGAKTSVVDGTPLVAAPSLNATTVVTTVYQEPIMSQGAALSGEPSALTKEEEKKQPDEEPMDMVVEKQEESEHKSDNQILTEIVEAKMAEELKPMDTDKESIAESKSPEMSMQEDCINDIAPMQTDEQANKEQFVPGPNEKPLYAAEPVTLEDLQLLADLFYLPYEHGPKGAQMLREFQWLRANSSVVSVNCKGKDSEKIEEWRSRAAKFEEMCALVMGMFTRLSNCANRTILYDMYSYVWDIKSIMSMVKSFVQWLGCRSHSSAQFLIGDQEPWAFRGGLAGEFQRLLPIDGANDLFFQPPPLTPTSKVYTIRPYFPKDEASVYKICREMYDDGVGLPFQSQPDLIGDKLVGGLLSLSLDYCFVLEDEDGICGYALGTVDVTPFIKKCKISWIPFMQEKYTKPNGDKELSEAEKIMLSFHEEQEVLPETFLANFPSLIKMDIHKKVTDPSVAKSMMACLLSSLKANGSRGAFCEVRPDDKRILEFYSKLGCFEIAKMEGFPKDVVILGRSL
Description: Assay for the Determination of Cellular Activity for Compounds that Inhibit O-GlcNAcase Activity
Inhibition of O-GlcNAcase, which removes O-GlcNAc from cellular proteins, results in an increase in the level of O-GlcNAcylated proteins in cells. An increase in the O-GlcNAcylation of cellular proteins can be measured by an antibody, such as CTD110.6, that binds O-GlcNAcylated proteins. The amount of O-GlcNAcylated protein can be determined by the enzyme linked immunoabsorbant assay (ELISA) technique.
Cell lines, such as rat B35, rat PC-12 and human SH-SY5Y cells, expressing endogenous levels of O-GlcNAcase, could be utilized. Cells were plated in 96-well plates at a density of approximately 10,000 cells/well. Compounds to be tested were dissolved in DMSO as 10 mM stock solution, and then diluted first with DMSO and then culture media using the Bravo workstation. Cells were treated with diluted compounds for approximately 16 hours. […] To prepare a cell lysate, the media from compound treated cells were removed, and the cells were washed once with Dulbecco's phosphate buffered saline (DPBS) and then lysed for 30 minutes in 100 μl/well of ice cold RIPA buffer containing a protease inhibitor cocktail.
The ELISA portion of the assay was performed in EIA/RIA plates that were coated overnight at 4 C with 80 μl/well of cell lysate. The following day the wells were washed 6 times with 200 μl of wash buffer (0.05% Tween20 in DPBS). The wells were blocked with 200 μl blocking buffer (1% BSA, 0.05% Tween20 in DPBS) for 1 h at room temperature. Each well was then washed 6 times with 200 μl of wash buffer. The anti-O-GlcNAc antibody CTD110.6 (Covance, Princeton, N.J.) was added at 100 μl/well at a concentration of 10 μg/ml. The plates were incubated for 1 h at room temperature. The wells were then washed 6 times with 200 μl/well of wash buffer. To detect the amount of CTD110.6 bound to the cell lysate, alkaline phosphatase conjugated goat anti-mouse IgM (diluted 1:500 in blocking buffer) was added at 100 μl/well and incubated for 45 min at room temperature. Each well was then washed 6 times with 200 μl/well of wash buffer. PNPP tablets dissolved in diethanolamine substrate buffer and 100 μl/well were added as detection reagent.
The amount of O-GlcNAcylated protein, as detected by the ELISA assay, was plotted for each concentration of test compound using standard curve fitting algorithms for sigmoidal dose response curves. The values for a four parameter logistic curve fit of the data were determined, with the inflection point of the curve being the potency value for the test compound.

[1] = target: T2, His-Tagged hOGA (human O-GlcNAcase) (Homo sapiens, UniProt O60502); test: biochemical
T2 sequence (O60502 1-916): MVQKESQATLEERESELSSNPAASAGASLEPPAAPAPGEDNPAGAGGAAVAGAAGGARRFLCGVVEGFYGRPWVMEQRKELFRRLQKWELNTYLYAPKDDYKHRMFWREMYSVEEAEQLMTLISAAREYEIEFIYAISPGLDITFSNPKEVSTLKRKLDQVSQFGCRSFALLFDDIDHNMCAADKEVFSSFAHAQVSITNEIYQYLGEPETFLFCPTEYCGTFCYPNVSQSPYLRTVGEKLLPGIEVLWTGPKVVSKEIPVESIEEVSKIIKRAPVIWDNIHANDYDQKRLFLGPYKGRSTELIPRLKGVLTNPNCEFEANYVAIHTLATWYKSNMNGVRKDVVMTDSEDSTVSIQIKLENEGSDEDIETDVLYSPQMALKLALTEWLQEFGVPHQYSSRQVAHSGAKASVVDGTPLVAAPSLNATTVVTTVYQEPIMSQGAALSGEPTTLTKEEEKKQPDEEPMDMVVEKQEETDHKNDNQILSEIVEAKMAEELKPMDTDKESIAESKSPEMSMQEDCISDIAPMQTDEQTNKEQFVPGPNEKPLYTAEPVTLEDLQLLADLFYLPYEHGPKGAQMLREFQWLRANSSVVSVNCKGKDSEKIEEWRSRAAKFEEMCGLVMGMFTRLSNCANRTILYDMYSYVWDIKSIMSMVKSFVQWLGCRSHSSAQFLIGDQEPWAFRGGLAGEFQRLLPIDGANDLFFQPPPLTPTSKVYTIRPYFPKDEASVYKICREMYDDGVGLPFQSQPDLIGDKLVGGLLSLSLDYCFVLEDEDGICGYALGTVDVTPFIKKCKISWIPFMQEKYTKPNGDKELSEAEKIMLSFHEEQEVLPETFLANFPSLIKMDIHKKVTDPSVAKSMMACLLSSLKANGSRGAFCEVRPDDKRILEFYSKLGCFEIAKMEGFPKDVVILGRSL
Protocol: Human O-GlcNAcase Enzyme Inhibition Assay
The following reaction components were added to a final volume of 10 μL in McIlvaine's Buffer (pH 6.5):
20 nM His-Tagged hOGA and 10 μM Fluoroscein mono-beta-D-(2-deoxy-2-N-acetyl) glucopyranoside (FL-GlcNAc; Marker Gene Technologies Inc, Part #M1485). […] The amount of fluorescence measured was plotted against the concentration of inhibitor to produce a sigmoidal dose response curve, from which an IC50 was calculated.

[2] = cells expressing endogenous O-GlcNAcase (such as rat B35, rat PC-12, human SH-SY5Y), approximately 16 hours treatment; read-out: OGA cellular inhibition (EC50)
[3] = read-out: OGA enzyme inhibition (IC50)

Row | IC50 [1, 3] [nM] | SMILES | EC50 (O-GlcNAcase; [2]) [nM] | IC50 [1] [nM] | EC50 (O-GlcNAcase; read-out: OGA cellular inhibition (EC50); cells expressing endogenous O-GlcNAcase (such as rat B35, rat PC-12, human SH-SY5Y), approximately 16 hours treatment) [nM]
1 |  | CCNC1=N[C@@H]2[C@@H](O)[C@H](O)[C@@H](Cn3cc(CCCc4ccccc4)nn3)O[C@@H]2S1 [compound no. 30, (3aR,5R,6S,7R,7aR)-2-(ethylamino)-5-{[4-(3-phenylpropyl)-1H-1,2,3-triazol-1-yl]methyl}-5,6,7,7a-tetrahydro-3aH-pyrano[3,2-d][1,3]thiazole-6,7-diol] | > 1000 | 100 to 500 | 
2 |  | CCNC1=N[C@@H]2[C@@H](O)[C@H](O)[C@@H](Cn3cc(COc4cccc(S(C)(=O)=O)c4)nn3)O[C@@H]2S1 [compound 81] | > 1000 | < 100 | 
3 |  | CCNC1=N[C@@H]2[C@@H](O)[C@H](O)[C@@H](Cn3cc(COc4ccc(C(C)O)cc4)nn3)O[C@@H]2S1 (some centres unmarked) [compound 90] | > 1000 | < 100 | 
4 | < 100 | CCNC1=N[C@@H]2[C@@H](O)[C@H](O)[C@@H](CCl)O[C@@H]2S1 [compound no. 32, (3aR,5S,6S,7R,7aR)-5-(chloromethyl)-2-(ethylamino)-5,6,7,7a-tetrahydro-3aH-pyrano[3,2-d][1,3]thiazole-6,7-diol] | < 100 |  | 
5 |  | CCNC1=N[C@@H]2[C@@H](O)[C@H](O)[C@@H](COC(c3ccccc3)(c3ccccc3)c3ccccc3)O[C@@H]2S1 [compound 43] | > 1000 | 500 to 1000 | 
6 | 100 to 500 | CCNC1=N[C@@H]2[C@@H](O)[C@H](O)[C@@H](CN(C)C)O[C@@H]2S1 [compound no. 51, (3aR,5R,6S,7R,7aR)-5-[(dimethylamino)methyl]-2-(ethylamino)-5,6,7,7a-tetrahydro-3aH-pyrano[3,2-d][1,3]thiazole-6,7-diol] | 100 to 500 |  | 
7 |  | CCNC1=N[C@@H]2[C@@H](O)[C@H](O)[C@@H](Cn3cc(COc4cccc(C(C)O)c4)nn3)O[C@@H]2S1 (some centres unmarked) [compound 76] | > 1000 | < 100 | 
8 |  | CCNC1=N[C@@H]2[C@@H](O)[C@H](O)[C@@H](Cn3cc(COc4cccc(C#N)c4)nn3)O[C@@H]2S1 [compound 73] | 500 to 1000 | < 100 | 
9 | 100 to 500 | CCNC1=N[C@@H]2[C@@H](O)[C@H](O)[C@@H](Cn3cc(Cn4c5ccccc5c5ccccc54)nn3)O[C@@H]2S1 [compound 69] | 100 to 500 |  | 
10 | < 100 | CCNC1=N[C@@H]2[C@@H](O)[C@H](O)[C@@H](Cn3cc(COc4cccc(O)c4)nn3)O[C@@H]2S1 [compound 74] | > 1000 |  | 
11 | 100 to 500 | CCNC1=N[C@@H]2[C@@H](O)[C@H](O)[C@@H](Cn3cc(C(=O)OC)nn3)O[C@@H]2S1 [compound no. 10, Methyl 1-{[(3aR,5R,6S,7R,7aR)-2-(ethylamino)-6,7-dihydroxy-5,6,7,7a-tetrahydro-3aH-pyrano[3,2-d][1,3]thiazol-5-yl]methyl}-1H-1,2,3-triazole-4-carboxylate] | 500 to 1000 |  | 
12 | 100 to 500 | CCNC1=N[C@@H]2[C@@H](O)[C@H](O)[C@@H](Cn3cc(-c4ccccn4)nn3)O[C@@H]2S1 [compound no. 7, (3aR,5R,6S,7R,7aR)-2-(ethylamino)-5-[(4-pyridin-2-yl-1H-1,2,3-triazol-1-yl)methyl]-5,6,7,7a-tetrahydro-3aH-pyrano[3,2-d][1,3]thiazole-6,7-diol] | > 1000 |  | 
13 |  | CCNC1=N[C@@H]2[C@@H](O)[C@H](O)[C@@H](Cn3cc(COc4cccc(Cl)c4)nn3)O[C@@H]2S1 [compound 78] | < 100 | < 100 | 
14 |  | CCN(C(=O)OC(C)(C)C)C1=N[C@@H]2[C@@H](O)[C@H](O)[C@@H](CO)O[C@@H]2S1 [compound no. 12, Tert-butyl [(3aR,5R,6S,7R,7aR)-6,7-dihydroxy-5-(hydroxymethyl)-5,6,7,7a-tetrahydro-3aH-pyrano[3,2-d][1,3]thiazol-2-yl]ethylcarbamate] | < 100 | < 100 | 
15 |  | CCNC1=N[C@@H]2[C@@H](O)[C@H](O)[C@@H](CF)O[C@@H]2S1 [compound no. 4, (3aR,5S,6S,7R,7aR)-2-(ethylamino)-5-(fluoromethyl)-5,6,7,7a-tetrahydro-3aH-pyrano[3,2-d][1,3]thiazole-6,7-diol] |  | < 100 | 100 to 500
16 | 100 to 500 | CCNC1=N[C@@H]2[C@@H](O)[C@H](O)[C@@H](C(O)CCc3ccccc3)O[C@@H]2S1 (single isomer, unassigned) [compound no. 53] | 100 to 500 |  | 
17 |  | CCNC1=N[C@@H]2[C@@H](O)[C@H](O)[C@@H](Cn3cc(C(O)(c4ccccc4)C(F)(F)F)nn3)O[C@@H]2S1 (some centres unmarked) [compound 70] | > 1000 | < 100 | 
18 |  | CCNC1=N[C@@H]2[C@@H](O)[C@H](O)[C@@H](Cn3cc(COc4ccccc4C#N)nn3)O[C@@H]2S1 [compound 82] | > 1000 | < 100 | 
19 |  | CCNC1=N[C@@H]2[C@@H](O)[C@H](O)[C@@H](Cn3cc(CCc4ccccc4)nn3)O[C@@H]2S1 [compound no. 6, (3aR,5R,6S,7R,7aR)-2-(ethylamino)-5-{[4-(2-phenylethyl)-1H-1,2,3-triazol-1-yl]methyl}-5,6,7,7a-tetrahydro-3aH-pyrano[3,2-d][1,3]thiazole-6,7-diol] | 500 to 1000 | < 100 | 
